Reference: patent US20230340127A1, “METHODS AND COMPOSITIONS FOR CANCER TREATMENT BY INHIBITION OF FBXO44” (Sanford Burnham Prebys Medical Discovery Institute, priority 2022, published 2023)

Test system: MDA-MB-231 or 4T1 cells
Test: qRT-PCR of endogenous retroelements, IFN-α/β, ISGs and PD-L1 in F5446-treated cells
Assay type: cell-based
Details: cancer cells (MDA-MB-231, 4T1), qRT-PCR (FIGS. 10F-10G)
Procedure: Quantitative (q)RT-PCR: total RNA was isolated using the RNeasy Plus Mini Kit (Qiagen no. 74134). cDNA was synthesized using qScript cDNA SuperMix (Quantabio no. 95048) following the manufacturer's instructions. qPCR reactions were performed using SYBR Select Master Mix (Thermo Fisher Scientific no. 4472908) and a Stratagene Mx3000P instrument (Agilent Technologies). Thermal cycling conditions included an initial denaturation step of 95° C. for 10 min and 40 cycles at 95° C. for 15 sec and 60° C. for 60 sec. Analyses were carried out in triplicate for each data point. The qPCR primers used for gene expression analysis of human REs and genes included MajSAT-[…] (SEQ ID NO: 1) and […] (SEQ ID NO: 2), mcBox-[…] (SEQ ID NO: 3) and […] (SEQ ID NO: 4), SATIII-[…] (SEQ ID NO: 5) and […] (SEQ ID NO: 6), Alu-[…] (SEQ ID NO: 7) and […] (SEQ ID NO: 8), L1 ORF1-TGGCCCCCACTCTCTTCT (SEQ ID NO: 18) and […] (SEQ ID NO: 19), L1 ORF2-[…] (SEQ ID NO: 20) and […] (SEQ ID NO: 21), L1 5′-UTR-AAGCAAGCCTGGGCAATG (SEQ ID NO: 22) and […] (SEQ ID NO: 23), HERV-E-[…] (SEQ ID NO: 24) and GCAGCCTAGGTCTCTGG (SEQ ID NO: 25), HERV-F-CCTCCAGTCACAACAACTC (SEQ ID NO: 26) and TATTGAAGAAGGCGGCTGG (SEQ ID NO: 27), HERV-K-[…] (SEQ ID NO: 28) and […] (SEQ ID NO: 29), ERVL-[…] (SEQ ID NO: 30) and […] (SEQ ID NO: 31), GAPDH-[…] (SEQ ID NO: 32) and […] (SEQ ID NO: 33), FBXO44-[…] (SEQ ID NO: 34) and […] (SEQ ID NO: 35), SUV39H1-[…] […]

COC(=O)c1cc2c(n1S(=O)(=O)c1ccc(Cl)cc1)C(=O)C(=O)c1[nH]cc(C(=O)OCc3ccccc3)c1-2 [F5446]
expression of various REs and IFN signaling: activated
